Like-named read-outs stand apart in the source and are kept apart here.
How the values were obtained:
B-Raf (V600E) = B-Raf (V600E) (Homo sapiens (Human), UniProt P15056, V600E); experiment: Raf IC50 assay, time-resolved fluorescence energy transfer, B-Raf (V600E); format: biochemical; conditions: 0.1 mM ATP; read-out: IC50 (nM) B_Raf^V600E
Procedure: The enzyme was incubated with the compounds at room temperature for 60 minutes and the reactions were initiated by the addition of ATP and GST-MEK1. After reaction at room temperature for 60 minutes, an equal volume of stop/detection solution was added according to the manufacture's instruction (CisBio Bioassays). […] The IC50 for each compound was derived from fitting the dose-response % inhibition data to the four-parameter logistic model by Graphpad Prism software.

C-Raf (Y340D/Y341D) = C-Raf (Y340D/Y341D) (Homo sapiens (Human), UniProt P04049, Y340D/Y341D); experiment: Raf IC50 assay, time-resolved fluorescence energy transfer, C-Raf (Y340D/Y341D); format: biochemical; conditions: 0.1 mM ATP
Sequence of C-Raf (Y340D/Y341D) (P04049 whole entry Y340D/Y341D): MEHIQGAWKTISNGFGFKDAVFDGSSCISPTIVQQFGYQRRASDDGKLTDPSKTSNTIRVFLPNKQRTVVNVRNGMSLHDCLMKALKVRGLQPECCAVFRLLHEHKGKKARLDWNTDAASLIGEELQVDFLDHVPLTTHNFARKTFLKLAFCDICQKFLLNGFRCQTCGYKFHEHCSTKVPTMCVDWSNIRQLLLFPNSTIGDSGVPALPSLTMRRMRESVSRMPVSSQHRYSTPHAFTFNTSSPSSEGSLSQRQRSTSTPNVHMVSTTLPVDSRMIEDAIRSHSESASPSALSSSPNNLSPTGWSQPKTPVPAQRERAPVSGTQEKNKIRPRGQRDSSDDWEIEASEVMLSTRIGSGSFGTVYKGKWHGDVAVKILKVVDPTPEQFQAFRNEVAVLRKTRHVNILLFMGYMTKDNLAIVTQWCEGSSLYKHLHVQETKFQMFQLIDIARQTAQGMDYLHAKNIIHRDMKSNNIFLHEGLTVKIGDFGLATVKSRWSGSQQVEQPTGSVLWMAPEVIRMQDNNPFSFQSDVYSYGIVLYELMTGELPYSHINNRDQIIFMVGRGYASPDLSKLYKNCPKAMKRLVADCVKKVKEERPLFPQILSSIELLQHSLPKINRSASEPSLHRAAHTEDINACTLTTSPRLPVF
Procedure: The assay was carried out in reactions (10 μL) containing 0.0625 nM B-Raf or 0.5 nM C-Raf, 25 mM Tris pH7.4, 10 mM MgCl2, 0.5 mM EGTA, 0.5 mM Na3VO4, 5 mM beta-glycerophosphate, 0.01% Triton X-100, 2.5 mM DTT, 0.1% BSA, 0.1 mM ATP, 13.7 nM GST-tagged MEK1 (Full-length protein with K97R mutation, recombinant protein purified from bacterial expression system) and 0-5 μM compounds disclosed herein (final concentration of 1% DMSO). The enzyme was incubated with the compounds at room temperature for 60 minutes and the reactions were initiated by the addition of ATP and GST-MEK1. After reaction at room temperature for 60 minutes, an equal volume of stop/detection solution was added according to the manufacture's instruction (CisBio Bioassays). The stop/detection solution contained Eu^3+ cryptate-conjugated anti-phospho MEK1/2 (Ser217/221) rabbit polyclonal antibody and d2-conjugated anti-GST mouse monoclonal antibody in buffer containing 25 mM Tris pH7.4, 400 mM KF, 50 mM EDTA, 0.01% BSA and 0.01% Triton X-100. Plates were sealed and incubated at room temperature for 2 hours, and the TR-FRET signals (ratio of fluorescence emission at 665 nm over emission at 620 nm with excitation at 337 nm wavelength) were recorded on a PHERAstar FS plate reader (BMG Labtech). Phosphorylation of MEK1 led to the binding of anti-phospho-MEK1/2 antibody to GST-MEK1 protein that place fluorescent donor (Eu^3+ crypate) in close proximity to the accepter d2 on the anti-GST antibody, thus resulting in a high degree of fluorescence resonance energy transfer from the donor fluorophore (at 620 nm) to the acceptor fluorophore (at 665 nm). […] The IC50 for each compound was derived from fitting the dose-response % inhibition data to the four-parameter logistic model by Graphpad Prism software.

wild type B-Raf = wild type B-Raf (Homo sapiens (Human), UniProt P15056); experiment: WT B-Raf IC50 assay, time-resolved fluorescence energy transfer; format: biochemical
Sequence of wild type B-Raf (P15056 whole entry): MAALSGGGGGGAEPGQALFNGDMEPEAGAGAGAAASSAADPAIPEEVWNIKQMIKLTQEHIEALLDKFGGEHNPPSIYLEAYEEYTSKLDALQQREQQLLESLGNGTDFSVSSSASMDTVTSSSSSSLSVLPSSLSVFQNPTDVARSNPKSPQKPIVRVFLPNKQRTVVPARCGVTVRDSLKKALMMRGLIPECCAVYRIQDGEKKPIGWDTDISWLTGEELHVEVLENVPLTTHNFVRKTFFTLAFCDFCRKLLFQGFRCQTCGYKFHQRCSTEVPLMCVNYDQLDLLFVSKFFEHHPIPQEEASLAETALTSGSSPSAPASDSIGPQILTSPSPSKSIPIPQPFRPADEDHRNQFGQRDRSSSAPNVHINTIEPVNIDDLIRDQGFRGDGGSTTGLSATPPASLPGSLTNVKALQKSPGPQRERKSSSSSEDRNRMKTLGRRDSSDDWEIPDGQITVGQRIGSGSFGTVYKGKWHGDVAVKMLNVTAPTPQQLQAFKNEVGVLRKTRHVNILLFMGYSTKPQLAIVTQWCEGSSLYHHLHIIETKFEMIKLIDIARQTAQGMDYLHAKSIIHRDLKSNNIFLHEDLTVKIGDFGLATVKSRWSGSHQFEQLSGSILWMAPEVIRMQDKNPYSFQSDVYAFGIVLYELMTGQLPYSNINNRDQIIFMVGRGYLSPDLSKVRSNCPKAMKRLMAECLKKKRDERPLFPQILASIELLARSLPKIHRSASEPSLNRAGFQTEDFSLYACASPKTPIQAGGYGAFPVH
Procedure: The IC50 for each compound was calculated by non linear regression by Graphpad Prism software.

A375 = experiment: Anti-proliferative activity EC50 assay (CellTiter-Glo) in A375; format: cell-based; conditions: Homo sapiens, A-375, 72 h; 3-day exposure; read-out: Cell Proliferation EC50 (nM) A375
Procedure: The growth-inhibitory activity of compounds in A375 and p61-A375, was determined using CellTiter-Glo luminescent cell viability assay (Promega). The 2,000 cells were seeded per well of a 96-well plate to ensure logarithmic growth could occur over the 3 days treatment period. Cells were left to attach for 16 hours, cells were treated in duplicate with a 10-point dilution series. Following a 3-day exposure to compounds disclosed herein, a volume of CellTiter-Glo reagent equal to the volume of cell culture medium present in each well was added. Mixture was mixed on an orbital shaker for 2 minutes to allow cell lysis, followed by 10 minutes incubation at room temperature to allow stabilization of luminescent signal, which corresponded to quantitation of ATP and thus the quantitation of metabolically active cells. Luminescent signal was measured using Pherastar FS reader (BMG Labtech).
EC50 values for growth inhibition were calculated by fitting dose-dependent data to the four-parameter logistic model using GraphPad Prism software.

[1] = 2.5 mM ATP, read-out: IC50 (nM) B-Raf^WT 2.5 mM ATP
[2] = Km ATP (2.9 μM ATP), read-out: IC50 (nM) B-Raf^WT Km ATP

Sequence of B-Raf (V600E) (P15056 whole entry V600E): as the sequence (P15056 whole entry) above, with V600E counted along it

Row | IC50 (wild type B-Raf; [1]) [nM] | IC50 (wild type B-Raf; [2]) [nM] | Compound | IC50 (B-Raf (V600E)) [nM] | IC50 (C-Raf (Y340D/Y341D)) [nM] | EC50 (A375) [nM]
1 |  |  | COc1ccc(CNC(=O)N[C@@H]2[C@H]3Oc4ccc(Oc5ccnc6c5CCC(=O)N6)cc4[C@@H]23)cc1 [Compound 1.3] | 40 | 0.54 | 
2 | 8.5 | 2.8 | C#Cc1cccc(NC(=O)N[C@@H]2[C@H]3Oc4ccc(Oc5ccnc6c5CCC(=O)N6)cc4[C@@H]23)c1 [Compound 1.14] | 1.9 |  | 127
3 |  |  | Cc1cccc(Cl)c1NC(=O)N[C@@H]1[C@H]2Oc3ccc(Oc4ccnc5c4CCC(=O)N5)cc3[C@@H]12 [Compound 1.19] | 5.1 |  | 503
4 |  |  | O=C1CCc2c(Oc3ccc4c(c3)[C@H]3[C@H](NC(=O)Nc5ccc(C(F)(F)F)cc5)[C@H]3O4)ccnc2N1 [Compound 1.29] | 6.9 |  | 222
5 |  |  | O=C1CCc2c(Oc3ccc4c(c3)[C@H]3[C@H](NC(=O)Nc5ccccc5C(F)(F)F)[C@H]3O4)ccnc2N1 [Compound 1.30] | 3 |  | 583
6 | 75 | 19 | O=C1CCc2c(Oc3ccc4c(c3)[C@H]3[C@H](NC(=O)Nc5cc(C(F)(F)F)ccc5F)[C@H]3O4)ccnc2N1 [Compound 1.33] | 9.5 |  | 137
7 | 7.9 | 2.5 | O=C1CCc2c(Oc3ccc4c(c3)[C@H]3[C@H](NC(=O)Nc5c(F)ccc(F)c5F)[C@H]3O4)ccnc2N1 [Compound 1.48] | 0.74 |  | 686
8 |  |  | O=C1CCc2c(Oc3ccc4c(c3)[C@H]3[C@H](NC(=O)NC5CCCC5)[C@H]3O4)ccnc2N1 [Compound 1.51] | 0.59 |  | 273
9 |  |  | O=C1CCc2c(Oc3ccc4c(c3)[C@H]3[C@H](NC(=O)NCc5cccc(C(F)(F)F)c5)[C@H]3O4)ccnc2N1 [Compound 1.54] | 1.9 |  | 2700
10 |  |  | O=C1CCc2c(Oc3ccc4c(c3)[C@H]3[C@H](NC(=O)NCc5cccc(F)c5)[C@H]3O4)ccnc2N1 [Compound 1.58] | 0.77 |  | 534
11 |  |  | O=C1CCc2c(Oc3ccc4c(c3)[C@H]3[C@H](NC(=O)NCc5ccc(F)cc5)[C@H]3O4)ccnc2N1 [Compound 1.59] | 0.84 |  | 891
12 |  |  | O=C1CCc2c(Oc3ccc4c(c3)[C@H]3[C@H](NC(=O)Nc5cccc(OC(F)(F)F)c5)[C@H]3O4)ccnc2N1 [Compound 1.60] | 8.6 |  | 193
13 |  |  | O=C1CCc2c(Oc3ccc4c(c3)[C@H]3[C@H](NC(=O)Nc5ccc(OC(F)(F)F)cc5)[C@H]3O4)ccnc2N1 [Compound 1.61] | 7.4 |  | 975
14 |  |  | O=C1CCc2c(Oc3ccc4c(c3)[C@H]3[C@H](NC(=O)Nc5ccccc5OC(F)(F)F)[C@H]3O4)ccnc2N1 [Compound 1.62] | 6.3 |  | 302
15 |  |  | O=C1CCc2c(Oc3ccc4c(c3)[C@H]3[C@H](NC(=O)NC5CCOCC5)[C@H]3O4)ccnc2N1 [Compound 1.67] | 4.2 |  | 4170
16 |  |  | O=C1CCc2c(Oc3ccc4c(c3)[C@@H]3[C@@H](NC(=O)Nc5cccc(C(F)(F)F)c5)[C@@H]3O4)ccnc2N1 [Compound 1.71, 1-((1R,1aR,6bR)-5-((7-oxo-5,6,7,8-tetrahydro-1,8-naphthyridin-4-yl)oxy)-1a,6b-dihydro-1H-cyclopropa[b]benzofuran-1-yl)-3-(3-(trifluoromethyl)phenyl)urea] | 3 | 0.34 | 
17 |  |  | O=C1CCc2c(Oc3ccc4c(c3)[C@H]3C(NC(=O)NCc5ccc(F)cc5C(F)(F)F)[C@H]3O4)ccnc2N1 (stereo partly drawn) [Compound 1.76] | 3.4 |  | 1310
18 |  |  | CC(C)(C)NC(=O)N[C@@H]1[C@H]2Oc3ccc(Oc4ccnc5c4CCC(=O)N5)cc3[C@@H]12 [Compound 1.77] | 4.5 |  | 4540
19 |  |  | CCCCCCNC(=O)N[C@@H]1[C@H]2Oc3ccc(Oc4ccnc5c4CCC(=O)N5)cc3[C@@H]12 [Compound 1.78] | 0.72 |  | 1900
20 |  |  | O=C1CCc2c(Oc3ccc4c(c3)[C@H]3[C@H](NC(=O)N[C@H]5CCc6ccccc65)[C@H]3O4)ccnc2N1 [Compound 1.81] | 2.7 |  | 159

Row | IC50 (wild type B-Raf; [1]) [nM] | IC50 (wild type B-Raf; [2]) [nM] | Compound | IC50 (B-Raf (V600E)) [nM] | IC50 (C-Raf (Y340D/Y341D)) [nM] | EC50 (A375) [nM]
21 |  |  | O=C1CCc2c(Oc3ccc4c(c3)[C@H]3[C@H](NC(=O)N[C@@H]5CCc6ccccc65)[C@H]3O4)ccnc2N1 [Compound 1.82] | 2.4 |  | 867
22 |  |  | CC(C)(C)CNC(=O)N[C@@H]1[C@H]2Oc3ccc(Oc4ccnc5c4CCC(=O)N5)cc3[C@@H]12 [Compound 1.83] | 3 |  | 291
23 |  |  | CCCCCCCCNC(=O)N[C@@H]1[C@H]2Oc3ccc(Oc4ccnc5c4CCC(=O)N5)cc3[C@@H]12 [Compound 1.84] | 12 |  | 4330
24 |  |  | CN1CCN(c2ccc(NC(=O)N[C@@H]3[C@H]4Oc5ccc(Oc6ccnc7c6CCC(=O)N7)cc5[C@@H]34)cc2C(F)(F)F)CC1 [Compound 1.86, 1-(4-(4-methylpiperazin-1-yl)-3-(trifluoromethyl)phenyl)-3-((1S,1aS,6bS)-5-((7-oxo-5,6,7,8-tetrahydro-1,8-naphthyridin-4-yl)oxy)-1a,6b-dihydro-1H-cyclopropa[b]benzofuran-1-yl)urea] | 183 |  | 
25 |  |  | CCN1CCN(c2ccc(NC(=O)N[C@@H]3[C@H]4Oc5ccc(Oc6ccnc7c6CCC(=O)N7)cc5[C@@H]34)cc2C(F)(F)F)CC1 [Compound 1.87] | 227 |  | 
26 |  |  | O=C(Nc1ccc(F)cc1F)N[C@@H]1[C@H]2Oc3ccc(Oc4ccncn4)cc3[C@@H]12 [Compound 2.1, 1-(2,4-difluorophenyl)-3-((1S,1aS,6bS)-5-(pyrimidin-4-yloxy)-1a,6b-dihydro-1H-cyclopropa[b]benzofuran-1-yl)urea] | 1100 |  | 
27 |  |  | O=C(Nc1ccc(F)c(F)c1)N[C@@H]1[C@H]2Oc3ccc(Oc4ccncn4)cc3[C@@H]12 [Compound 2.2] | 111 |  | 
28 |  |  | O=C(Nc1cc(F)c(F)cc1F)N[C@@H]1[C@H]2Oc3ccc(Oc4ccnc5c4COC(=O)N5)cc3[C@@H]12 [Compound 2.3, 1-((1S,1aS,6bS)-5-((2-oxo-2,4-dihydro-1H-pyrido[2,3-d][1,3]oxazin-5-yl)oxy)-1a,6b-dihydro-1H-cyclopropa[b]benzofuran-1-yl)-3-(2,4,5-trifluorophenyl)urea] | 2.6 |  | 190
29 |  |  | O=C1NCc2c(Oc3ccc4c(c3)[C@H]3[C@H](NC(=O)Nc5ccc(F)c(C(F)(F)F)c5)[C@H]3O4)ccnc2N1 [Compound 2.4, 1-(4-fluoro-3-(trifluoromethyl)phenyl)-3-((1S,1aS,6bS)-5-((2-oxo-1,2,3,4-tetrahydropyrido[2,3-d]pyrimidin-5-yl)oxy)-1a,6b-dihydro-1H-cyclopropa[b]benzofuran-1-yl)urea] | 11 |  | 374
30 |  |  | O=C1NCc2c(Oc3ccc4c(c3)[C@H]3[C@H](NC(=O)Nc5cc(F)c(F)cc5F)[C@H]3O4)ccnc2N1 [Compound 2.5] | 2.3 |  | 769
31 |  |  | CNC(=O)c1cc(Oc2ccc3c(c2)[C@H]2[C@H](NC(=O)Nc4cccc(C(F)(F)F)c4)[C@H]2O3)ccn1 [Compound 2.6, N-methyl-4-(((1S,1aS,6bS)-1-(3-(3-(trifluoromethyl)phenyl)ureido)-1a,6b-dihydro-1H-cyclopropa[b]benzofuran-5-yl)oxy)picolinamide] | 26 |  | 624
32 |  |  | CNC(=O)c1cc(Oc2ccc3c(c2)[C@H]2[C@H](NC(=O)Nc4ccc(F)c(C(F)(F)F)c4)[C@H]2O3)ccn1 [Compound 2.7] | 33 |  | 464
33 |  |  | O=C(Nc1ccc(F)c(C(F)(F)F)c1)N[C@@H]1[C@H]2Oc3ccc(Oc4ccncc4)cc3[C@@H]12 [Compound 2.9] | 24 |  | 
34 |  |  | O=C(Nc1cc(F)c(F)cc1F)N[C@@H]1[C@H]2Oc3ccc(Oc4ccncc4)cc3[C@@H]12 [Compound 2.10] | 50 |  | 
35 |  |  | O=C(Nc1cccc(C(F)(F)F)c1)N[C@@H]1[C@H]2Oc3ccc(Oc4ccncc4)cc3[C@@H]12 [Compound 2.11] | 58 |  | 
36 |  |  | O=C(Nc1ccc(F)c(C(F)(F)F)c1)N[C@@H]1[C@H]2Oc3ccc(Oc4ncnc5[nH]cnc45)cc3[C@@H]12 [Compound 2.12, 1-((1S,1aS,6bS)-5-((9H-purin-6-yl)oxy)-1a,6b-dihydro-1H-cyclopropa[b]benzofuran-1-yl)-3-(4-fluoro-3-(trifluoromethyl)phenyl)urea] | 10 |  | 
37 |  |  | O=C(Nc1ccc(F)cc1F)N[C@@H]1[C@H]2Oc3ccc(Oc4ncnc5[nH]cnc45)cc3[C@@H]12 [Compound 2.13] | 24 |  | 
38 |  |  | Nc1cc(Oc2ccc3c(c2)[C@H]2[C@H](NC(=O)Nc4ccc(F)cc4F)[C@H]2O3)ccn1 [Compound 2.14, 1-((1S,1aS,6bS)-5-((2-aminopyridin-4-yl)oxy)-1a,6b-dihydro-1H-cyclopropa[b]benzofuran-1-yl)-3-(2,4-difluorophenyl)urea] | 36 |  | 
39 |  |  | Nc1cc(Oc2ccc3c(c2)[C@H]2[C@H](NC(=O)Nc4cc(F)c(F)cc4F)[C@H]2O3)ccn1 [Compound 2.15] | 18 |  | 10000
40 |  |  | CNC(=O)c1cc(Oc2ccc3c(c2)[C@H]2[C@H](NC(=O)Nc4ccc(Cl)c(C(F)(F)F)c4)[C@H]2O3)ccn1 [Compound 2.16] | 88 |  | 

From US9670203B2 (BeiGene, LTD., priority 2013, dated 2017)
